In US20220168427A1 (Ranok Therapeutics (Hangzhou) Co. Ltd., priority 2019, published 2022):

What was measured:
HSP90α = HSP90α (Homo sapiens, UniProt P07900); experiment: HSP90α Binding Fluorescent Polarization (FP) Assay; settings: competition with FITC-geldanamycin; read-out: HSP90 Binding Potency
How it was run: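 Duplicate wells held BSA buffer, FITC-geldanamycin tracer, compound (3-fold dilution plate spanning 40 μM–2.0 nM) and recombinant protein diluted to 28 μg/ml before addition. Polarization read at 30, 60 and 120 min, 25 °C. Background-corrected mP values gave IC50 through a four-parameter inhibitor-response fit.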

BRD4 (BD1+BD2) = biological target: T1, BRD4 (BD1+BD2) (Homo sapiens, UniProt O60885); settings: read-out: BRD4 Binding Potency
T1 construct: 1.8 μg/ml recombinant BRD4 (BD1+BD2 domains) protein

MV4-11 cells = experiment: MV4-11 Cell Cytotoxicity Assay; type: cell-based, human; settings: human, MV4-11 cells, CCK-8
Excerpt: % Inhibition=100−(D−B)/(S−B)*100%.
S: The absorbance of the maximum (cells with DMSO)
B: The absorbance of the minimum (medium with DMSO)

SMILES	IC50 (HSP90α) [µM]	IC50 (BRD4 (BD1+BD2)) [µM]	IC50 at 72 h (MV4-11 cells) [µM]
Cc1sc2c(c1C)C(c1ccc(Cl)cc1)=N[C@@H](CC(=O)N1CCC(CCN3CCC(Cc4ccc(-n5c(O)nnc5-c5cc(C(C)C)c(O)cc5O)cc4)CC3)CC1)c1nnc(C)n1-2 [Compound 80, (S)-2-(4-(4-chlorophenyl)-2,3,9-trimethyl-6H-thieno[3,2-f][1,2,4]triazolo[4,3-a][1,4]diazepin-6-yl)-1-(4-(2-(4-(4-(3-(2,4-dihydroxy-5-isopropylphenyl)-5-hydroxy-4H-1,2,4-triazol-4-yl)benzyl)piperidin-1-yl)ethyl)piperidin-1-yl)ethan-1-one, trifluoroacetic acid]	0.1 to 1	< 0.1	< 0.1
Cc1sc2c(c1C)C(c1ccc(Cl)cc1)=N[C@@H](CC(=O)N[C@H](C)c1cccc(CN3CCC(Cc4ccc(-n5c(O)nnc5-c5cc(C(C)C)c(O)cc5O)cc4)CC3)c1)c1nnc(C)n1-2 [Compound 81, 2-((S)-4-(4-chlorophenyl)-2,3,9-trimethyl-6H-thieno[3,2-f][1,2,4]triazolo[4,3-a][1,4]diazepin-6-yl)-N—((R)-1-(3-((4-(4-(3-(2,4-dihydroxy-5-isopropylphenyl)-5-hydroxy-4H-1,2,4-triazol-4-yl)benzyl)piperidin-1-yl)methyl)phenyl)ethyl)acetamide, trifluoroacetic acid]	0.1 to 1	0.1 to 1	< 0.1
Cc1sc2c(c1C)C(c1ccc(Cl)cc1)=N[C@@H](CC(=O)N1CCC(Cc3ccc(CN(C)Cc4ccc(-n5c(O)nnc5-c5cc(C(C)C)c(O)cc5O)cc4)cc3)CC1)c1nnc(C)n1-2 [Compound 83, (S)-2-(4-(4-chlorophenyl)-2,3,9-trimethyl-6H-thieno[3,2-f][1,2,4]triazolo[4,3-a][1,4]diazepin-6-yl)-1-(4-(4-(((4-(3-(2,4-dihydroxy-5-isopropylphenyl)-5-hydroxy-4H-1,2,4-triazol-4-yl)benzyl)(methyl)amino)methyl)benzyl)piperidin-1-yl)ethan-1-one, trifluoroacetic acid]	0.1 to 1	> 1	< 0.1
Cc1sc2c(c1C)C(c1ccc(Cl)cc1)=N[C@@H](CC(=O)N1CCC(CN3CCC(Cc4ccc(-n5c(C(=O)NCC(F)(F)F)nnc5-c5cc(C(C)C)c(O)cc5O)cc4)CC3)CC1)c1nnc(C)n1-2 [Compound 85, (S)-4-(4-((1-((1-(2-(4-(4-chlorophenyl)-2,3,9-trimethyl-6H-thieno[3,2-f][1,2,4]triazolo[4,3-a][1,4]diazepin-6-yl)acetyl)piperidin-4-yl)methyl)piperidin-4-yl)methyl)phenyl)-5-(2,4-dihydroxy-5-isopropylphenyl)-N-(2,2,2-trifluoroethyl)-4H-1,2,4-triazole-3-carboxamide, formic acid]	0.1 to 1	0.1 to 1	< 0.1
CCc1cc(-c2nnc(C(=O)NCC(F)(F)F)n2-c2ccc(CC3CCN(CC4CCN(C(=O)C[C@@H]5N=C(c6ccc(Cl)cc6)c6c(sc(C)c6C)-n6c(C)nnc65)CC4)CC3)cc2)c(O)cc1O [Compound 86, (S)-4-(4-((1-((1-(2-(4-(4-chlorophenyl)-2,3,9-trimethyl-6H-thieno[3,2-f][1,2,4]triazolo[4,3-a][1,4]diazepin-6-yl)acetyl)piperidin-4-yl)methyl)piperidin-4-yl)methyl)phenyl)-5-(5-ethyl-2,4-dihydroxyphenyl)-N-(2,2,2-trifluoroethyl)-4H-1,2,4-triazole-3-carboxamide, trifluoroacetic acid]	0.1 to 1	0.1 to 1	< 0.1
CCNC(=O)c1nnc(-c2cc(CC)c(O)cc2O)n1-c1ccc(CC2CCN(CC3CCN(C(=O)C[C@@H]4N=C(c5ccc(Cl)cc5)c5c(sc(C)c5C)-n5c(C)nnc54)CC3)CC2)cc1 [Compound 87, (S)-4-(4-((1-((1-(2-(4-(4-chlorophenyl)-2,3,9-trimethyl-6H-thieno[3,2-f][1,2,4]triazolo[4,3-a][1,4]diazepin-6-yl)acetyl)piperidin-4-yl)methyl)piperidin-4-yl)methyl)phenyl)-N-ethyl-5-(5-ethyl-2,4-dihydroxyphenyl)-1H-1,2,414-triazole-3-carboxamide, trifluoroacetic acid]	0.1 to 1	0.1 to 1	< 0.1
CCc1cc(-c2nnc(O)n2-c2ccc(CC3CCN(CC4CCN(C(=O)C[C@@H]5N=C(c6ccc(Cl)cc6)c6c(sc(C)c6C)-n6c(C)nnc65)CC4)CC3)cc2)c(O)cc1O [Compound 88, (S)-2-(4-(4-chlorophenyl)-2,3,9-trimethyl-6H-thieno[3,2-f][1,2,4]triazolo[4,3-a][1,4]diazepin-6-yl)-1-(4-((4-(4-(3-(5-ethyl-2,4-dihydroxyphenyl)-5-hydroxy-4H-1,2,4-triazol-4-yl)benzyl)piperidin-1-yl)methyl)piperidin-1-yl)ethan-1-one, formic acid]	0.1 to 1	0.1 to 1	< 0.1
Cc1sc2c(c1C)C(c1ccc(Cl)cc1)=N[C@@H](CC(=O)NCc1ccc(CN3CCC(Cc4ccc(-n5c(O)nnc5-c5cc(C(C)C)c(O)cc5O)cc4)CC3)cc1)c1nnc(C)n1-2 [Compound 89, (S)-2-(4-(4-chlorophenyl)-2,3,9-trimethyl-6H-thieno[3,2-f][1,2,4]triazolo[4,3-a][1,4]diazepin-6-yl)-N-(4-((4-(4-(3-(2,4-dihydroxy-5-isopropylphenyl)-5-hydroxy-4H-1,2,4-triazol-4-yl)benzyl)piperidin-1-yl)methyl)benzyl)acetamide, trifluoroacetic acid]	0.1 to 1	0.1 to 1	< 0.1
CCNC(=O)c1nnc(-c2cc(C(C)C)c(O)cc2O)n1-c1ccc(CC2CCN(CC3CCN(C(=O)C[C@@H]4N=C(c5ccc(Cl)cc5)c5c(sc(C)c5C)-n5c(C)nnc54)CC3)CC2)cc1 [Compound 90, (S)-4-(4-((1-((1-(2-(4-(4-chlorophenyl)-2,3,9-trimethyl-6H-thieno[3,2-f][1,2,4]triazolo[4,3-a][1,4]diazepin-6-yl)acetyl)piperidin-4-yl)methyl)piperidin-4-yl)methyl)phenyl)-5-(2,4-dihydroxy-5-isopropylphenyl)-N-ethyl-4H-1,2,4-triazole-3-carboxamide]	0.1 to 1	0.1 to 1	< 0.1
CCc1cc(-c2nnc(C(=O)NCC(F)(F)F)n2-c2ccc(CC3CCN(Cc4ccc(CNC(=O)C[C@@H]5N=C(c6ccc(Cl)cc6)c6c(sc(C)c6C)-n6c(C)nnc65)cc4)CC3)cc2)c(O)cc1O [Compound 91, (S)-4-(4-((1-(4-((2-(4-(4-chlorophenyl)-2,3,9-trimethyl-6H-thieno[3,2-f][1,2,4]triazolo[4,3-a][1,4]diazepin-6-yl)acetamido)methyl)benzyl)piperidin-4-yl)methyl)phenyl)-5-(5-ethyl-2,4-dihydroxyphenyl)-N-(2,2,2-trifluoroethyl)-4H-1,2,4-triazole-3-carboxamide, trifluoroacetic acid]	0.1 to 1	0.1 to 1	< 0.1
Cc1sc2c(c1C)C(c1ccc(Cl)cc1)=N[C@@H](CC(=O)N(C)[C@H](C)c1ccc(CN3CCN(Cc4ccc(-n5c(O)nnc5-c5cc(C(C)C)c(O)cc5O)cc4)CC3)cc1)c1nnc(C)n1-2 [Compound 92, 2-((S)-4-(4-chlorophenyl)-2,3,9-trimethyl-6H-thieno[3,2-f][1,2,4]triazolo[4,3-a][1,4]diazepin-6-yl)-N—((R)-1-(4-((4-(4-(3-(2,4-dihydroxy-5-isopropylphenyl)-5-hydroxy-4H-1,2,4-triazol-4-yl)benzyl)piperazin-1-yl)methyl)phenyl)ethyl)-N-methylacetamide, trifluoroacetic acid]	> 1	> 1	0.1 to 1
Cc1sc2c(c1C)C(c1ccc(Cl)cc1)=N[C@@H](CC(=O)N(C)[C@H](C)c1ccc(CN3CCC(Cc4ccc(-n5c(O)nnc5-c5cc(C(C)C)c(O)cc5O)cc4)CC3)cc1)c1nnc(C)n1-2 [Compound 93, 2-((S)-4-(4-chlorophenyl)-2,3,9-trimethyl-6H-thieno[3,2-f][1,2,4]triazolo[4,3-a][1,4]diazepin-6-yl)-N—((R)-1-(4-((4-(4-(3-(2,4-dihydroxy-5-isopropylphenyl)-5-hydroxy-4H-1,2,4-triazol-4-yl)benzyl)piperidin-1-yl)methyl)phenyl)ethyl)-N-methylacetamide, trifluoroacetic acid]	0.1 to 1	0.1 to 1	< 0.1
Cc1sc2c(c1C)C(c1ccc(Cl)cc1)=N[C@@H](CC(=O)N1CCC(CN3CCC(Cc4ccc(-n5c(O)nnc5-c5cc(C(C)C)c(O)cc5O)cc4)CC3)CC1)c1nnc(C)n1-2 [Compound 94, (S)-2-(4-(4-chlorophenyl)-2,3,9-trimethyl-6H-thieno[3,2-f][1,2,4]triazolo[4,3-a][1,4]diazepin-6-yl)-1-(4-((4-(4-(3-(2,4-dihydroxy-5-isopropylphenyl)-5-hydroxy-4H-1,2,4-triazol-4-yl)benzyl)piperidin-1-yl)methyl)piperidin-1-yl)ethan-1-one, trifluoroacetic acid]	< 0.1	0.1 to 1	< 0.1
Cc1sc2c(c1C)C(c1ccc(Cl)cc1)=N[C@@H](CC(=O)NCCc1ccc(CN3CCC(Cc4ccc(-n5c(C(=O)NCC(F)(F)F)nnc5-c5cc(C(C)C)c(O)cc5O)cc4)CC3)cc1)c1nnc(C)n1-2 [Compound 95, (S)-4-(4-((1-(4-(2-(2-(4-(4-chlorophenyl)-2,3,9-trimethyl-6H-thieno[3,2-f][1,2,4]triazolo[4,3-a][1,4]diazepin-6-yl)acetamido)ethyl)benzyl)piperidin-4-yl)methyl)phenyl)-5-(2,4-dihydroxy-5-isopropylphenyl)-N-(2,2,2-trifluoroethyl)-4H-1,2,4-triazole-3-carboxamide, trifluoroacetic acid]	0.1 to 1	0.1 to 1	< 0.1
